Here are results for 29 compounds from EP2951180B1, “2,6,7,8 SUBSTITUTED PURINES AS HDM2 INHIBITORS” (Merck Sharp & Dohme Corp., priority 2013, dated 2014).

T1 sequence (Q00987 17-125): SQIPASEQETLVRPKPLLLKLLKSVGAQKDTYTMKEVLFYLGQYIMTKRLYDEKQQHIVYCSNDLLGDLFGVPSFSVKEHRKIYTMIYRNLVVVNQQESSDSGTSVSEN

The first test concerns the target T1, HDM2 (Homo sapiens, UniProt Q00987).
T1 construct: Thioredoxin (N); made in house; host or cells: E. coli strain BL21(DE3)Rosetta
Description: FRET assay (HDM2 inhibition; method not described in this part). The format is binding. As to conditions: Table 1.
Usually IC50 stands for the midpoint of a concentration-inhibition curve. `Cc1cc(C(C)C)cc(-c2nc3nc(C(=O)O)nc(N[C@H](C)C4CCC4)c3n2Cc2ccc(C(F)(F)F)cc2)n1` [Example 1.93, 6-{[(1R)-1-cyclobutylethyl]amino}-8-[6-methyl-4-(1-methylethyl)pyridin-2-yl]-7-[4-(trifluoromethyl)benzyl]-7H-purine-2-carboxylic acid] had an IC50 of 19.1 nM.

In the case of `C[C@@H](Nc1nc(C(=O)O)nc2nc(-c3nccc4ccccc34)n(Cc3ccc(C(F)(F)F)cc3)c12)C1CCC1` [Example 1.73, 6-{[(1R)-1-cyclobutylethyl]amino}-8-isoquinolin-1-yl-7-[4-(trifluoromethyl)benzyl]-7H-purine-2-carboxylic acid], half-maximal inhibition (IC50) required 27.3 nM.

For the compound `CC(C)c1ccnc(-c2nc3nc(C(=O)O)nc(N[C@H](C)C4CCC4)c3n2Cc2ccc(OC(F)(F)F)cc2)c1` [Example 1.72, 6-{[(1R)-1-cyclobutylethyl]amino}-8-[4-(1-methylethyl)pyridin-2-yl]-7-[4-(trifluoromethoxy)benzyl]-7H-purine-2-carboxylic acid], it took 12.3 nM to reach half-maximal inhibition (IC50). This IC50 is about 2.2-fold lower than that of the compound before.

The compound `Cc1ccc2cc(-c3nc4nc(C(=O)O)nc(N[C@H](C)C5CCC5)c4n3Cc3ccc(C(F)(F)F)cc3)ccc2n1` [Example 1.111, 6-{[(1R)-1-cyclobutylethyl]amino}-8-(2-methylquinolin-6-yl)-7-[4-(trifluoromethyl)benzyl]-7H-purine-2-carboxylic acid] returned an IC50 of 128 nM. This IC50 lies about 10-fold higher than the previous one.

As for `C[C@@H](Nc1nc(C(=O)O)nc2nc(-c3cc(C(F)F)ccn3)n(Cc3ccc(C(F)(F)F)cc3)c12)C1CCC1` [Example 1.46, 6-{[(1R)-1-cyclobutylethyl]amino}-8-[4-(difluoromethyl)pyridin-2-yl]-7-[4-(trifluoromethyl)benzyl]-7H-purine-2-carboxylic acid], the IC50 was determined as 12.3 nM.

Take `Cc1ccn(-c2ccnc(-c3nc4nc(C(=O)O)nc(N[C@H](C)C5CCC5)c4n3Cc3ccc(C(F)(F)F)cc3)c2)n1` [Example 1.48, 6-{[(1R)-1-cyclobutylethyl]amino}-8-[4-(3-methyl-1H-pyrazol-1-yl)pyridin-2-yl]-7-[4-(trifluoromethyl)benzyl]-7H-purine-2-carboxylic acid]: the IC50 is 2260 nM.

`C[C@@H](Nc1nc(C(=O)O)nc2nc(-c3cc(C(C)(C)C)ccn3)n(Cc3ccc(C(F)(F)F)cc3)c12)C1CCC1` [Example 1.53, 8-(4-tert-butylpyridin-2-yl)-6-{[(1R)-1-cyclobutylethyl]amino}-7-[4-(trifluoromethyl)benzyl]-7H-purine-2-carboxylic acid] came in with an IC50 of 4.36 nM. This IC50 lies about 520-fold lower than the previous one.

`CCc1ccc(OCOC)c(-c2nc3nc(C(=O)O)nc(N[C@H](C)C4CCC4)c3n2Cc2ccc(C(F)(F)F)cc2)c1` [Example 1.36, 6-{[(1R)-1-cyclobutylethyl]amino}-8-[5-ethyl-2-(methoxymethoxy)pheny 1]-7-[4-(trifluoromethyl)benzyl]-7H-purine-2-carboxylic acid] showed an IC50 of 23.1 nM.

On to `CC(O)c1ccnc(-c2nc3nc(C(=O)O)nc(N[C@H](C)C4CCC4)c3n2Cc2ccc(C(F)(F)F)cc2)c1` (stereo partly drawn) [Example 1.28, 6-{[(1R)-1-cyclobutylethyl]amino}-8-[4-(1-hydroxyethyl)pyridin-2-yl]-7-[4-(trifluoromethyl)benzyl]-7H-purine-2-carboxylic acid], for which the IC50 stood at 12.4 nM.

`C[C@@H](Nc1nc(C(=O)O)nc2nc(-c3cc(C(C)(C)C)cc(C(C)(C)C)c3)n(Cc3ccc(C(F)(F)F)cc3)c12)C1CCC1` [Example 1.128, 6-{[(1R)-1-cyclobutylethyl]amino}-8-(3,5-di-tert-butylphenyl)-7-[4-(trifluoromethyl)benzyl]-7H-purine-2-carboxylic acid]: inhibition was half-maximal at 224 nM (IC50).

`C[C@@H](Nc1nc(C(=O)O)nc2nc(-c3cccc(-n4cccc4)c3)n(Cc3ccc(C(F)(F)F)cc3)c12)C1CCC1` [Example 1.107, 6-{[(1R)-1-cyclobutylethyl]amino}-8-[3-(1H-pyrrol-1-yl)phenyl]-7-[4-(trifluoromethyl)benzyl]-7H-purine-2-carboxylic acid] yielded an IC50 of 34.8 nM.

Regarding `C[C@@H](Nc1nc(C(=O)O)nc2nc(-c3ncccc3-c3ccccc3)n(Cc3ccc(C(F)(F)F)cc3)c12)C1CCC1` [Example 1.75, 6-{[(1R)-1-cyclobutylethyl]amino}-8-(3-phenylpyridin-2-yl)-7-[4-(trifluoromethyl)benzyl]-7H-purine-2-carboxylic acid], the half-inhibitory concentration (IC50) worked out at 6.12 nM.

With `C[C@@H](Nc1nc(C(=O)O)nc2nc(-c3cc(C(F)(F)F)ccc3F)n(Cc3ccc(C(F)(F)F)cc3)c12)C1CCC1` [Example 1.38, 6-{[(1R)-1-cyclobutylethyl]amino}-8-[2-fluoro-5-(trifluoromethyl)phenyl] - 7-[4-(trifluoromethyl)benzyl]-7H-purine-2-carboxylic acid], the IC50 came out at 27.5 nM.

In turn, `CCCc1ccnc(-c2nc3nc(C(=O)O)nc(N[C@H](C)C4CCC4)c3n2Cc2ccc(C(F)(F)F)c(F)c2)c1` [Example 1.80, 6-{[(1R)-1-cyclobutylethyl]amino}-7-[3-fluoro-4-(trifluoromethyl)benzyl]-8-(4-propylpyridin-2-yl)-7H-purine-2-carboxylic acid] gave an IC50 of 7.45 nM.

In the case of `Cc1ccc(Cl)c(-c2nc3nc(C(=O)O)nc(N[C@H](C)C4CCC4)c3n2Cc2ccc(C(F)(F)F)cc2)c1` [Example 1.120, 8-(2-chloro-5-methylphenyl)-6-{[(1R)-1-cyclobutylethyl]amino}-7-[4-(trifluoromethyl)benzyl] - 7H-purine-2-carboxylic acid], the IC50 was found to be 10.4 nM. This IC50 and that of the compound before are within 1.5-fold of each other.

`CCOc1ccnc(-c2nc3nc(C(=O)O)nc(N[C@H](C)C4CCC4)c3n2Cc2ccc(C(F)(F)F)cc2)c1` [Example 1.43, 6-{[(1R)-1-cyclobutylethyl]amino}-8-(4-ethoxypyridin-2-yl)-7-[4-(trifluoromethyl)benzyl] - 7H-purine-2-carboxylic acid] came in with an IC50 of 11.8 nM.

`CC(C)c1ccnc(-c2nc3nc(C(=O)O)nc(N[C@@H](C)C4CCC4)c3n2Cc2ccc(C(F)(F)F)cc2)c1` [Example 1.50] showed an IC50 of 128 nM. This IC50 lies about 11-fold higher than the previous one.

`C[C@@H](Nc1nc(C(=O)O)nc2nc(-c3cccc4c3CNC4)n(Cc3ccc(C(F)(F)F)cc3)c12)C1CCC1` [Example 1.61, 6-{[(1R)-1-cyclobutylethyl]amino}-8-(2,3-dihydro-1H-isoindol-4-yl)-7-[4-(trifluoromethyl)benzyl]-7H-purine-2-carboxylic acid] displayed an IC50 of 51.4 nM.

Still in this test, the particulars now being: Table 2.
`Cc1ccc(-c2nc3nc(C(=O)O)nc(N[C@H](C)C4CC4)c3n2Cc2ccc(C(F)(F)F)cc2)cc1` [Example 2.33, 6-{[(1R)-1-cyclopropylethyl]amino}-8-(4-methylphenyl)-7-[4-(trifluoromethyl)benzyl]-7H-purine-2-carboxylic acid] displayed an IC50 of 401 nM.

Take `C[C@@H](Nc1nc(C(=O)O)nc2nc(-c3ccc4ncccc4c3)n(Cc3ccc(C(F)(F)F)cc3)c12)C1CC1` [Example 2.69, 6-{[(1R)-1-cyclopropylethyl]amino}-8-quinolin-6-yl-7-[4-(trifluoromethyl)benzyl]-7H-purine-2-carboxylic acid]: 296 nM corresponded to half-maximal inhibition (IC50).

In the case of `C[C@@H](Nc1nc(C(=O)O)nc2nc(-c3ccc(Cl)cc3)n(Cc3ccc(Cl)cc3)c12)C1CC1` [Example 2.9, 7-(4-chlorobenzyl)-8-(4-chlorophenyl)-6-{[(1R)-1-cyclopropylethyl]amino}-7H-purine-2-carboxylic acid], the midpoint of inhibition, the IC50, lay at 43.8 nM.

Turning to `C[C@@H](Nc1nc(C(=O)O)nc2nc(-c3cnn(C)c3)n(Cc3ccc(C(F)(F)F)cc3)c12)C1CCC1` [Example 2.83, 6-{[(1R)-1-cyclobutylethyl]amino} -8-(1-methyl-1H-pyrazol-4-yl)-7-[4-(trifluoromethyl)benzyl] - 7H-purine-2-carboxylic acid], the IC50 came out at 189 nM. This IC50 lies about 4.3-fold higher than the previous one.

Take `Cc1cc(OC(F)(F)F)ccc1-c1nc2nc(C(=O)O)nc(N[C@H](C)C3CC3)c2n1Cc1ccc(C(F)(F)F)cc1` [Example 2.54, 6-{[(1R)-1-cyclopropylethyl]amino}-8-[2-methyl-4-(trifluoromethoxy)phenyl]-7-[4-(trifluoromethyl)benzyl]-7H-purine-2-carboxylic acid]: the IC50 is 826 nM. Compared with the last compound, the IC50 is about 4.4-fold higher.

Turning to `C[C@@H](Nc1nc(C(=O)O)nc2nc(-c3ccccc3F)n(Cc3ccc(C(F)(F)F)cc3)c12)C1CCC1` [Example 2.47, 6-{[(1R)-1-cyclobutylethyl]amino}-8-(2-fluorophenyl)-7-[4-(trifluoromethyl)benzyl]-7H-purine-2-carboxylic acid], 26 nM corresponded to half-maximal inhibition (IC50). Against the preceding compound, the IC50 is about 32-fold lower.

In turn, `C[C@@H](Nc1nc(C(=O)O)nc2nc(-c3ccc(Cl)c(Cl)c3)n(Cc3ccc(C(F)(F)F)cc3)c12)C1CC1` [Example 2.31, 6-{[(1R)-1-cyclopropylethyl]amino}-8-(3,4-dichlorophenyl)-7-[4-(trifluoromethyl)benzyl]-7H-purine-2-carboxylic acid] registered an IC50 of 154 nM. Against the preceding compound, the IC50 is about 5.9-fold higher.

`COc1cc(C#N)cc(-c2nc3nc(C(=O)O)nc(N[C@H](C)C4CCC4)c3n2Cc2ccc(C(F)(F)F)cc2)c1` [Example 2.64, 8-(3-cyano-5-methoxyphenyl)-6-{[(1R)-1-cyclobutylethyl]amino}-7-[4-(trifluoromethyl)benzyl]-7H-purine-2-carboxylic acid] displayed an IC50 of 89.1 nM.

The same test, now with this note: Table 4.
Consider `CNC(=O)CCOc1ccc(C)cc1-c1nc2nc(C(=O)O)nc(N[C@H](C)C3CC3)c2n1Cc1ccc(Cl)cc1` [Example 4.13, (R)-7-(4-chlorobenzyl)-6-((1-cyclopropylethyl)amino)-8-(5-methyl-2-(3-(methylamino)-3-oxopropoxy)phenyl)-7H-purine-2-carboxylic acid], for which half-maximal inhibition (IC50) required 487 nM. That is a sub-micromolar value.

Still in this test, the particulars now being: Table 5.
`Cc1cccc(-c2nc3nc(C(=O)O)nc(N[C@H](C)C4CCC4)c3n2Cc2ccc(C3CC3)cc2)c1` [Example 5.10, 6-{[(1R)-1-cyclobutylethyl]amino}-7-(4-cyclopropylbenzyl)-8-(3-methylphenyl)-7H-purine-2-carboxylic acid] registered an IC50 of 270 nM. In other words, the sub-micromolar range.

On to `CCc1ccc(Cn2c(-c3cccc(C)c3)nc3nc(C(=O)O)nc(N[C@H](C)C4CC4)c32)cc1` [Example 5.20, 6-{[(1R)-1-cyclopropylethyl]amino}-7-(4-ethylbenzyl)-8-(3-methylphenyl)-7H-purine-2-carboxylic acid], for which inhibition was half-maximal at 1200 nM (IC50).
